In patent publication US20240287138A1, “CYCLIC PEPTIDES FOR INHIBITING TNF RECEPTOR 1 ACTIVITY” (Merck Sharp & Dohme LLC, priority 2023, published 2024):
Numbered stars: 1 amine (or outer) side, 2 acyl side, 3 side chain; on linkers, the order of the positions; unused ones are H or OH. Bridge positions count the residues as written; N and C are the ends. Square brackets hold non-standard residues; d marks the D form. Peptide text beside a SMILES is read from it. Trp(βS-Me,7-OMe) = COc1cccc2c([C@H](C)[C@H](N)C(=O)O)c[nH]c12; X5 = COc1cccc2[nH]cc([C@H](C)[C@H](N[*:1])C(=O)[*:2])c12; Trp(7-CN) = N#Cc1cccc2c(C[C@H](N)C(=O)O)c[nH]c12; Trp(7-Cl) = N[C@@H](Cc1c[nH]c2c(Cl)cccc12)C(=O)O; Phe(3-CONH2) = NC(=O)c1cccc(C[C@H](N)C(=O)O)c1; Phe(4-CONH2) = NC(=O)c1ccc(C[C@H](N)C(=O)O)cc1; Phe(4-COOH) = N[C@@H](Cc1ccc(C(=O)O)cc1)C(=O)O; Trp(7-aza) = N[C@@H](Cc1c[nH]c2ncccc12)C(=O)O; Phe(4-CH2NH2) = NCc1ccc(C[C@H](N)C(=O)O)cc1; Pip(5R-OH) = O=C(O)[C@@H]1CC[C@@H](O)CN1; αMeW = C[C@](N)(Cc1c[nH]c2ccccc12)C(=O)O; X1 = O=C([C@@H]1CC[C@H](N[*:1])C1)[*:2]; Pip(4-aza) = O=C(O)[C@@H]1CNCCN1; 4Pal = N[C@@H](Cc1ccncc1)C(=O)O; NMeE = CN[C@@H](CCC(=O)O)C(=O)O; dHyp = O=C(O)[C@H]1C[C@H](O)CN1; Ahp(2) = CCCCC[C@H](N)C(=O)O; NMeS = CN[C@@H](CO)C(=O)O; αMeS = C[C@](N)(CO)C(=O)O; Nle = CCCC[C@H](N)C(=O)O; Sar = CNCC(=O)O

How the values were obtained:
human TNFR2 ECD protein = target: T1, human TNFR2 ECD protein (Homo sapiens, UniProt P20333); experiment: SPR off-target binding (selectivity) to human TNFR2 ECD
T1 construct: HRV 3C protease cleavage site (C); 6His (C, cleaved yes); made in house; host or cells: Sf21 insect cells (baculovirus), secreted
T1 sequence (P20333 23-257): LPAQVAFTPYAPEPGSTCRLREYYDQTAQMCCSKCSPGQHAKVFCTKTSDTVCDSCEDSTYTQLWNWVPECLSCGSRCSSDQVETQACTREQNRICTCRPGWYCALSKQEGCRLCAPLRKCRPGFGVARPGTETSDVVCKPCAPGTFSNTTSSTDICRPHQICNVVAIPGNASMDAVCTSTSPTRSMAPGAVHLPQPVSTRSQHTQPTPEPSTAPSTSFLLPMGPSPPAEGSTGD
Method in brief: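 Biotinylated avi-tagged human TNFR1 or TNFR2 ECD, expressed in Sf21 insect cells, captured on streptavidin SPR chip; peptide analytes run in 10 mM HEPES pH 7.4, 150 mM NaCl, 3 mM EDTA, 0.05% P20, 2% DMSO. kon and koff measured, affinity KA calculated.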

[1] = target: T2, human soluble TNFR1 (sTNFR1) (Homo sapiens, UniProt P19438); experiment: Human sTNFR1-peptide displacement assay (LanthaScreen Eu TR-FRET binding assay)
T2 construct: made in house; host or cells: Sf21 (baculovirus)
T2 sequence (P19438 with tags, fused parts or gaps): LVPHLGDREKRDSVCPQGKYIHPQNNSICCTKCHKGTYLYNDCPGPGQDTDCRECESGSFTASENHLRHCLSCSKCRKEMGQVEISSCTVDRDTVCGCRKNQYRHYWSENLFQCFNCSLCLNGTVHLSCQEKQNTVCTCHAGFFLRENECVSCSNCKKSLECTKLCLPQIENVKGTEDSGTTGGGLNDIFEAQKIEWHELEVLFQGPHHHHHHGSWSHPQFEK
Method in brief: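 Readout is the 665/615 nm TR-FRET ratio (Eu anti-His donor, streptavidin-Alexa647 acceptor), normalized to DMSO and saturating displacer, fit by Morrison-based five-parameter logistic for Kd^app. His-tagged sTNFR1 (1-211) prebound to 100 nM biotinylated peptide SEQ ID NO.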

| Structure (SMILES) | Kd (human TNFR2 ECD protein) [nM] | Kd [1] [nM] | IC50 [1] [nM] |
| --- | --- | --- | --- |
| CCCC[C@@H]1NC(=O)[C@@H]2CC[C@@H](C2)NC(=O)[C@H]([C@@H](C)c2c[nH]c3c(OC)cccc23)NC(=O)CN(C)C(=O)[C@H](Cc2ccc(C(N)=O)cc2)NC(=O)[C@H](Cc2ccc(C(N)=O)cc2)NC(=O)[C@](C)(CO)NC(=O)[C@H](Cc2c[nH]c3c(Cl)cccc23)NC(=O)[C@H](Cc2ccncc2)NC(=O)[C@H](CC(N)=O)NC(=O)[C@H](CCC(=O)O)N(C)C(=O)[C@H](Cc2c[nH]c3ncccc23)NC(=O)[C@@H]2CC[C@@H](O)CN2C(=O)[C@H](Cc2ccncc2)NC1=O [SEQ ID NO. 189] (cyclo([4Pal][Trp(7-Cl)][αMeS][Phe(4-CONH2)][Phe(4-CONH2)][Sar][Trp(βS-Me,7-OMe)][X1][Nle][4Pal][Pip(5R-OH)][Trp(7-aza)][NMeE]N)) | > 1000 | 0.01 | – |
| CCCCC[C@@H]1NC(=O)[C@@H]2CC[C@@H](C2)NC(=O)[C@H]([C@@H](C)c2c[nH]c3c(OC)cccc23)NC(=O)CN(C)C(=O)[C@H](Cc2ccc(OC)cc2)NC(=O)[C@H](Cc2ccc(C(N)=O)cc2)NC(=O)[C@](C)(CO)NC(=O)[C@H](Cc2c[nH]c3c(C#N)cccc23)NC(=O)[C@H](Cc2ccncc2)NC(=O)[C@H](CC(N)=O)NC(=O)[C@H]2C[C@H](O)CN2C(=O)[C@H](Cc2c[nH]c3ccccc23)NC(=O)[C@@H]2CNCCN2C(=O)[C@H](Cc2ccncc2)NC1=O [SEQ ID NO. 200] (cyclo([4Pal][Trp(7-CN)][αMeS][Phe(4-CONH2)]Y(Me)[Sar][Trp(βS-Me,7-OMe)][X1][Ahp(2)][4Pal][Pip(4-aza)]W[dHyp]N)) | > 1000 | 0.09 | – |
| CCCC[C@@H]1NC(=O)CSC[C@@H](C(N)=O)NC(=O)[C@H]([C@@H](C)c2c[nH]c3c(OC)cccc23)NC(=O)CN(C)C(=O)[C@H](Cc2ccc(O)cc2)NC(=O)[C@H](Cc2ccc(C(=O)O)cc2)NC(=O)[C@](C)(CO)NC(=O)[C@H](Cc2c[nH]c3c(Cl)cccc23)NC(=O)[C@H](Cc2ccncc2)NC(=O)[C@H](CC(N)=O)NC(=O)[C@H]2CCCN2C(=O)[C@H](Cc2c[nH]c3ccccc23)NC(=O)[C@@H]2CC[C@@H](O)CN2C(=O)[C@H](Cc2ccncc2)NC1=O [SEQ ID NO. 203] ({CH2CO}-[Nle][4Pal][Pip(5R-OH)]W[dP]N[4Pal][Trp(7-Cl)][αMeS][Phe(4-COOH)]Y[Sar][Trp(βS-Me,7-OMe)]C-NH2; thioether N-14) | > 1000 | 0.31 | – |
| CCCC[C@@H]1NC(=O)CSC[C@@H](C(N)=O)NC(=O)[C@](C)(Cc2c[nH]c3ccccc23)NC(=O)CN(C)C(=O)[C@H](Cc2ccc(O)cc2)NC(=O)[C@H](Cc2cccc(C(N)=O)c2)NC(=O)[C@](C)(CO)NC(=O)[C@H](Cc2c[nH]c3c(Cl)cccc23)NC(=O)[C@H](Cc2ccncc2)NC(=O)[C@H](CC(N)=O)NC(=O)[C@H](CCC(=O)O)N(C)C(=O)[C@H](Cc2c[nH]c3ncccc23)NC(=O)[C@H](CO)NC(=O)[C@H](Cc2ccc(CN)cc2)NC1=O [SEQ ID NO. 205] ({CH2CO}-[Nle][Phe(4-CH2NH2)]S[Trp(7-aza)][NMeE]N[4Pal][Trp(7-Cl)][αMeS][Phe(3-CONH2)]Y[Sar][αMeW]C-NH2; thioether N-14) | > 1000 | 1.01 | – |
| CCCC[C@@H]1NC(=O)CSC[C@@H](C(N)=O)NC(=O)[C@H]([C@@H](C)c2c[nH]c3cccc(OC)c23)NC(=O)CN(C)C(=O)[C@H](Cc2ccc(O)cc2)NC(=O)[C@H](Cc2ccc(C(N)=O)cc2)NC(=O)[C@](C)(CO)NC(=O)[C@H](Cc2c[nH]c3c(Cl)cccc23)NC(=O)[C@H](Cc2ccc(C(=O)O)cc2)NC(=O)[C@H](CC(N)=O)NC(=O)[C@H](CCC(=O)O)N(C)C(=O)[C@H](Cc2c[nH]c3ncccc23)NC(=O)[C@H](CO)N(C)C(=O)[C@H](Cc2ccncc2)NC1=O [SEQ ID NO. 209] ({CH2CO}-[Nle][4Pal][NMeS][Trp(7-aza)][NMeE]N[Phe(4-COOH)][Trp(7-Cl)][αMeS][Phe(4-CONH2)]Y[Sar][X5]C-NH2; thioether N-14) | > 1000 | 0.67 | 0.6 |
